ChEMBL document CHEMBL1144565, “Anti-breast cancer activity of LFM-A13, a potent inhibitor of Polo-like kinase (PLK)” (Bioorg Med Chem, 2007)
Active and inactive are the calls of the source. The rule behind the calls is not given here.

Assays:
Rattus norvegicus [1] = assay: Toxicity in Lewis rat assessed as absolute neutrophil counts at 20 mg/kg, iv after 7 days; assay type: organism-based; set-up: dose 20 mg/kg, route intravenous; settings: in vivo, 168 h
Danio rerio [2] = organism: Danio rerio; assay: Effect on cell division blockade in zebrafish two-cell stage embryo assessed as proliferation arrest at 16-cell stage at 500 uM after 30 to 35 mins; assay type: functional, organism-based
Mus musculus [3] = assay: Effect on non-proliferating tissue in ip dosed CD1 mouse assessed as toxic lesions in lung; assay type: ADME, organism-based; settings: in vivo
Mus musculus [4] = assay: Acute toxicity in CD1 mouse assessed as myeloid or lymphoid hyperplasia in bone marrow at 80 mg/kg, ip after 7 days; assay type: organism-based; set-up: dose 80 mg/kg, route intraperitoneal; settings: in vivo, 168 h
[5] = target: Tyrosine-protein kinase JAK2 (Homo sapiens, UniProt O60674); assay: Inhibition of JAK2
Sequence of Tyrosine-protein kinase JAK2 (O60674 whole entry): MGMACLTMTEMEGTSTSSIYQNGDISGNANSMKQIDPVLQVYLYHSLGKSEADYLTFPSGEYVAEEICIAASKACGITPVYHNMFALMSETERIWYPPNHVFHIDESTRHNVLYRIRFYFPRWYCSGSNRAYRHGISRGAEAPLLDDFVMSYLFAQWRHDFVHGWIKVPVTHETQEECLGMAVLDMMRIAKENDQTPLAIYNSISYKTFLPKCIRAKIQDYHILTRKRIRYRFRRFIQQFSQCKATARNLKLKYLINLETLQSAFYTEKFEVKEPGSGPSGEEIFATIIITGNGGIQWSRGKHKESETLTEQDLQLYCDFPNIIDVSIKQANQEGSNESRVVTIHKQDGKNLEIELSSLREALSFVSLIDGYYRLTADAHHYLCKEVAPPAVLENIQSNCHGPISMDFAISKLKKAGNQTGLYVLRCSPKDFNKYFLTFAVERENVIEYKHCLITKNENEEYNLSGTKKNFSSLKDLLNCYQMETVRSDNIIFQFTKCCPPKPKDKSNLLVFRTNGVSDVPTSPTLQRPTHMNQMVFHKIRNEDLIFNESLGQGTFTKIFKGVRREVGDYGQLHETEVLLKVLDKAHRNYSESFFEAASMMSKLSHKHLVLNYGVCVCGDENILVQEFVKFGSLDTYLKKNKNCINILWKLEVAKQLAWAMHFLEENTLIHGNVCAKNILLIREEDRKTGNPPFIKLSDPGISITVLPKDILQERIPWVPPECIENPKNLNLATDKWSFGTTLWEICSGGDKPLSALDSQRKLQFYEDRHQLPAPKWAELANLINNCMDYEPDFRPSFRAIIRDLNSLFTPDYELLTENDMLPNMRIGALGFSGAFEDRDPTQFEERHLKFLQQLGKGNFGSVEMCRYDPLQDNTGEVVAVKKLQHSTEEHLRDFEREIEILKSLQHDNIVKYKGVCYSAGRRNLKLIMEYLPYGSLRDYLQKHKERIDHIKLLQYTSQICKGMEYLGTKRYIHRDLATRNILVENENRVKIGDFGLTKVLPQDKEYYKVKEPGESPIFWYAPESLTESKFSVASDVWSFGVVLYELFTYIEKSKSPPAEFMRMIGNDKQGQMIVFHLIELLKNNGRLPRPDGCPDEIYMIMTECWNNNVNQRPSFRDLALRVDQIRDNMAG

[6] = target: T1, Serine/threonine-protein kinase PLK3 (Homo sapiens, UniProt Q9H4B4); assay: Inhibition of human PLK3 in presence of 75 uM ATP
T1 sequence (Q9H4B4 whole entry): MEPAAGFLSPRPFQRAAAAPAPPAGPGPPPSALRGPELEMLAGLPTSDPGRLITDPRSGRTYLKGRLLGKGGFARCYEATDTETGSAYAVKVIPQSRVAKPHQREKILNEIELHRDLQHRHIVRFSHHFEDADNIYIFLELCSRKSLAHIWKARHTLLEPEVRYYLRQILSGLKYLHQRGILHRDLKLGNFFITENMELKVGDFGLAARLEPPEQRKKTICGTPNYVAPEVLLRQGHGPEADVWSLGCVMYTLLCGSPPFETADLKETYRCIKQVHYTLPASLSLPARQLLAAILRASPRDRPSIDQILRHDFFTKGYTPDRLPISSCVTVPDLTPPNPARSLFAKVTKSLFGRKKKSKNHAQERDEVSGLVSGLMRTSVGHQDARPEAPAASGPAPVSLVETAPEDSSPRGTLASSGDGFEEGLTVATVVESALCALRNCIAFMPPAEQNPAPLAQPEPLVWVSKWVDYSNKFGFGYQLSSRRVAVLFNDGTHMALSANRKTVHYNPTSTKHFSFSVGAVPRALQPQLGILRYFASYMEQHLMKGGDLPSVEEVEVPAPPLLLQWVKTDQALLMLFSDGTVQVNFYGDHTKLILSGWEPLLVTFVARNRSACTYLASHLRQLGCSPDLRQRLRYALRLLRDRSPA

[7] = target: Mitogen-activated protein kinase 1 (Homo sapiens, UniProt P28482); assay: Inhibition of MAPK1
Mus musculus [8] = assay: Subacute toxicity in CD1 mouse assessed as WBC counts at 40 mg/kg, ip after 30 days; assay type: organism-based; set-up: dose 40 mg/kg, route intraperitoneal; settings: in vivo, 720 h
Mus musculus [9] = assay: Subacute toxicity in CD1 mouse assessed as WBC counts at 80 mg/kg, ip after 30 days; assay type: organism-based; set-up: dose 80 mg/kg, route intraperitoneal; settings: in vivo, 720 h
[10] = target: T1, Serine/threonine-protein kinase PLK3; assay: Inhibition of human PLK3 in presence of 200 uM ATP
Mus musculus [11] = assay: Subacute toxicity in CD1 mouse assessed as myeloid or lymphoid hyperplasia in bone marrow at 40 mg/kg, ip after 30 days; assay type: organism-based; set-up: dose 40 mg/kg, route intraperitoneal; settings: in vivo, 720 h
Mus musculus [12] = assay: Acute toxicity in CD1 mouse assessed as WBC counts at 40 mg/kg, ip after 7 days; assay type: organism-based; set-up: dose 40 mg/kg, route intraperitoneal; settings: in vivo, 168 h
Rattus norvegicus [13] = assay: Toxicity in Lewis rat assessed as myeloid or lymphoid hyperplasia in bone marrow at 80 mg/kg, iV after 7 days; assay type: organism-based; set-up: dose 80 mg/kg, route intravenous; settings: in vivo, 168 h
Mus musculus [14] = assay: Subacute toxicity in CD1 mouse assessed as absolute lymphocyte counts at 40 mg/kg, ip after 30 days; assay type: organism-based; set-up: dose 40 mg/kg, route intraperitoneal; settings: in vivo, 720 h
Mus musculus [15] = assay: Effect on non-proliferating tissue in po dosed BALB/c mouse assessed as toxic lesions in myocardium; assay type: ADME, organism-based; settings: in vivo
[16] = target: Tyrosine-protein kinase ABL1 (Homo sapiens, UniProt P00519); assay: Inhibition of ABL kinase
Mus musculus [17] = assay: Subacute toxicity in CD1 mouse assessed as WBC counts at 10 mg/kg, ip after 30 days; assay type: organism-based; set-up: dose 10 mg/kg, route intraperitoneal; settings: in vivo, 720 h
U-373MG ATCC = assay: Induction of aberrant monopolar and multipolar spindle formation in human U373 cells at 100 uM; assay type: functional, cell-based
Mus musculus [18] = assay: Subacute toxicity in CD1 mouse assessed as absolute neutrophil counts at 10 mg/kg, ip after 30 days; assay type: organism-based; set-up: dose 10 mg/kg, route intraperitoneal; settings: in vivo, 720 h
BT-20 = assay: Induction of aberrant monopolar and multipolar spindle formation in human BT20 cells assessed as at 100 uM; assay type: functional, cell-based
[19] = target: Inhibitor of NF-kappa-B kinase (IKK) (Homo sapiens, UniProt O14920+O15111+Q9Y6K9); assay: Inhibition of IKK; assay type: protein-complex assay
Rattus norvegicus [20] = assay: Toxicity in Lewis rat assessed as absolute lymphocyte counts at 80 mg/kg, iv after 7 days; assay type: organism-based; set-up: dose 80 mg/kg, route intravenous; settings: in vivo, 168 h
[21] = target: Tyrosine-protein kinase Fyn (Homo sapiens, UniProt P06241); assay: Inhibition of FYN kinase
Mus musculus [22] = assay: Effect on non-proliferating tissue in po dosed BALB/c mouse assessed as toxic lesions in brain; assay type: ADME, organism-based; settings: in vivo
[23] = target: T1, Serine/threonine-protein kinase PLK3; assay: Inhibition of human PLK3
Rattus norvegicus [24] = assay: Toxicity in Lewis rat assessed as absolute lymphocyte counts at 20 mg/kg, iv after 7 days; assay type: organism-based; set-up: dose 20 mg/kg, route intravenous; settings: in vivo, 168 h
[25] = target: Serine/threonine-protein kinase Chk1 (Homo sapiens, UniProt O14757); assay: Inhibition of CHK1
Sequence of Serine/threonine-protein kinase Chk1 (O14757 whole entry): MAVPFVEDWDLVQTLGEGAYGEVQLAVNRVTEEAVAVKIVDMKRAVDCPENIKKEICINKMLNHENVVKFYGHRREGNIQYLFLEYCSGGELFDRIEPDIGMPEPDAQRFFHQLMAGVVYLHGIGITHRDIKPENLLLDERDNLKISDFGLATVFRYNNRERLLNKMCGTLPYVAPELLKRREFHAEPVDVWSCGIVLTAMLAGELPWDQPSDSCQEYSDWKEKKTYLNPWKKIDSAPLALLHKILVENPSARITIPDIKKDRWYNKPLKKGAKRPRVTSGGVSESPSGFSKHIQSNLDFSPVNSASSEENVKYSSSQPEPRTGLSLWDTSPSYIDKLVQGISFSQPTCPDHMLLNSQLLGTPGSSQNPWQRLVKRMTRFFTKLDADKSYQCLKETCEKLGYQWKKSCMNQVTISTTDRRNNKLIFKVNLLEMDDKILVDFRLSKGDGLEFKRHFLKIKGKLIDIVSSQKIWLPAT

Rattus norvegicus [26] = assay: Effect on non-proliferating tissue in iv dosed Lewis rat assessed as toxic lesions in brain on day 7; assay type: ADME, organism-based; settings: in vivo
Mus musculus [27] = assay: Acute toxicity in CD1 mouse assessed as myeloid or lymphoid hyperplasia in bone marrow at 40 mg/kg, ip after 7 days; assay type: organism-based; set-up: dose 40 mg/kg, route intraperitoneal; settings: in vivo, 168 h
Mus musculus [28] = assay: Effect on non-proliferating tissue in ip dosed CD1 mouse assessed as toxic lesions in kidney; assay type: ADME, organism-based; settings: in vivo
Rattus norvegicus [29] = assay: Toxicity in Lewis rat assessed as myeloid or lymphoid hyperplasia in bone marrow at 40 mg/kg, iV after 7 days; assay type: organism-based; set-up: dose 40 mg/kg, route intravenous; settings: in vivo, 168 h
[30] = target: Hepatocyte growth factor receptor (Homo sapiens, UniProt P08581); assay: Inhibition of Met kinase
Sequence of Hepatocyte growth factor receptor (P08581 whole entry): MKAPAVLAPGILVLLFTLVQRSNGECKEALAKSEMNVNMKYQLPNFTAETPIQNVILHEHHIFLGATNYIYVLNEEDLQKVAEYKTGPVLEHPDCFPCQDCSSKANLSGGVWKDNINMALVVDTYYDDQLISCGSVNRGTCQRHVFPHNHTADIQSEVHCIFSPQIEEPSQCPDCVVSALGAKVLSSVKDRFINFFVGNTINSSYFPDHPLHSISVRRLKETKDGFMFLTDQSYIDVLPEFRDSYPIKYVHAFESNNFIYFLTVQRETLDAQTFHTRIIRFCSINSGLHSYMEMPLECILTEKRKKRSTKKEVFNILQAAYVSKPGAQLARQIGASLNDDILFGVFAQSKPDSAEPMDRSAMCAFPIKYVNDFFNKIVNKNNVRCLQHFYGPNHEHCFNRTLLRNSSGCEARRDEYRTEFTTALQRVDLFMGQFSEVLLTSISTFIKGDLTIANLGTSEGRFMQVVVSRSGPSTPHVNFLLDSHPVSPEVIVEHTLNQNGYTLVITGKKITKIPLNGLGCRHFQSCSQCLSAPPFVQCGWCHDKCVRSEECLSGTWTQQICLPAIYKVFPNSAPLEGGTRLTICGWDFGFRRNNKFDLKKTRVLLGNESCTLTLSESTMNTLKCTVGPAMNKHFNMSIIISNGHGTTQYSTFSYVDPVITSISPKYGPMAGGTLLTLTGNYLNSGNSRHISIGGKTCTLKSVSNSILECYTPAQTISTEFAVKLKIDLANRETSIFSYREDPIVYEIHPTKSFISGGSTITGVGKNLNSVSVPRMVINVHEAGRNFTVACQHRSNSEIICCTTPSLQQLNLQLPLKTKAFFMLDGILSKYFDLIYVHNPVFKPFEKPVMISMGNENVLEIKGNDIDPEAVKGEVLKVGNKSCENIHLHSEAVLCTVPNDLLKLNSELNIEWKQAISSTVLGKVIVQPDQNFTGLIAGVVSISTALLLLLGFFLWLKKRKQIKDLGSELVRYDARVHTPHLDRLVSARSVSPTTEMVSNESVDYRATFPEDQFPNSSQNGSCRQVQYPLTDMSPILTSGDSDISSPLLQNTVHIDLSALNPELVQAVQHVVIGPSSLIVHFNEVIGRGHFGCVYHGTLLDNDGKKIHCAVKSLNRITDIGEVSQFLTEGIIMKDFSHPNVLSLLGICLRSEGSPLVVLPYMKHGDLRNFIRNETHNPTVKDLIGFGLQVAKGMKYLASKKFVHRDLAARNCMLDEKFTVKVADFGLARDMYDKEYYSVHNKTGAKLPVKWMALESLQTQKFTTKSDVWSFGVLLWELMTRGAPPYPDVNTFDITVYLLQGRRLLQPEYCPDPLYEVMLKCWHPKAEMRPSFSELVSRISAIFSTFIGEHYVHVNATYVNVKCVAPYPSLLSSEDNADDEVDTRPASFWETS

[31] = target: Cyclin-dependent kinase 1 (Homo sapiens, UniProt P06493); assay: Inhibition of CDK1
Sequence of Cyclin-dependent kinase 1 (P06493 whole entry): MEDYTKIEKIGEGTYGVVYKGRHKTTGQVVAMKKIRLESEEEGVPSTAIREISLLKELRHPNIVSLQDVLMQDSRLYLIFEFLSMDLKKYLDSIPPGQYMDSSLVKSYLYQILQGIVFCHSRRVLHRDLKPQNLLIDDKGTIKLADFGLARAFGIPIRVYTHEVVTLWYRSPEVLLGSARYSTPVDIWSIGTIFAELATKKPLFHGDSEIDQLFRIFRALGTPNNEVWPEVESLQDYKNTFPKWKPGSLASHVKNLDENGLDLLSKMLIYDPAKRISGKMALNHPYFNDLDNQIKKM

[32] = target: Mitogen-activated protein kinase 14 (Homo sapiens, UniProt Q16539); assay: Inhibition of SAPK2a
Sequence of Mitogen-activated protein kinase 14 (Q16539 whole entry): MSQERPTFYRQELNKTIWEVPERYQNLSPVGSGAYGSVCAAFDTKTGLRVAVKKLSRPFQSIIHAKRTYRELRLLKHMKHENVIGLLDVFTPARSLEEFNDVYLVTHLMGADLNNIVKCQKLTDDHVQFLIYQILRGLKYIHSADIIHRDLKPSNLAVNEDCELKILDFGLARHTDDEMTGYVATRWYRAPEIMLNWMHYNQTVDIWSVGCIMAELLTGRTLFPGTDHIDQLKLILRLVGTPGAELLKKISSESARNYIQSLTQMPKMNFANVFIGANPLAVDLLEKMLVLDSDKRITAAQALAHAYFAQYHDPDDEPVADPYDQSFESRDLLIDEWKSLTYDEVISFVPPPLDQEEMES

[33] = target: Protein-tyrosine kinase 6 (Homo sapiens, UniProt Q13882); assay: Inhibition of BRK
Sequence of Protein-tyrosine kinase 6 (Q13882 whole entry): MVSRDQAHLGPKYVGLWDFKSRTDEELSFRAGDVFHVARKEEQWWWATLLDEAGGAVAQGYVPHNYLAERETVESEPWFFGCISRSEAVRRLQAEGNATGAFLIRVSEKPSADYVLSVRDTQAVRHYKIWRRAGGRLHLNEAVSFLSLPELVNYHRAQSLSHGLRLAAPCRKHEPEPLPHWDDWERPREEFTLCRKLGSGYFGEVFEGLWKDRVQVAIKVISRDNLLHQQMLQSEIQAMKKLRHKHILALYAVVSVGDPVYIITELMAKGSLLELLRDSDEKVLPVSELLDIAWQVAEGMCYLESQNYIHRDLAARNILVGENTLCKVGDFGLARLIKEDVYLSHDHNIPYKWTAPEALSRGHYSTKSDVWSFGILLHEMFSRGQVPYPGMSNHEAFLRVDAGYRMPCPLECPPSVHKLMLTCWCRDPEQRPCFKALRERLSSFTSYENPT

Rattus norvegicus [34] = assay: Toxicity in iv dosed Lewis rat; assay type: organism-based; settings: in vivo
[35] = target: Serine/threonine-protein kinase PLK1 (Xenopus laevis, UniProt P70032); assay: Inhibition of Xenopus recombinant Plx1 expressed in Sf21 cells by GST-Cdc25 substrate phosphorylation assay; assay type: functional
Mus musculus [36] = assay: Acute toxicity in CD1 mouse assessed as WBC counts at 20 mg/kg, ip after 7 days; assay type: organism-based; set-up: dose 20 mg/kg, route intraperitoneal; settings: in vivo, 168 h
Mus musculus [37] = assay: Acute toxicity in CD1 mouse assessed as absolute neutrophil counts at 40 mg/kg, ip after 7 days; assay type: organism-based; set-up: dose 40 mg/kg, route intraperitoneal; settings: in vivo, 168 h
Rattus norvegicus [38] = assay: Effect on non-proliferating tissue in iv dosed Lewis rat assessed as toxic lesions in myocardium on day 7; assay type: ADME, organism-based; settings: in vivo
Danio rerio [39] = organism: Danio rerio; assay: Effect on cell division blockade in zebrafish egg assessed as cell fusion and lysis at 500 uM after 60 mins; assay type: functional, organism-based
[40] = target: Insulin-like growth factor 1 receptor (Homo sapiens, UniProt P08069); assay: Inhibition of IGF1R
Rattus norvegicus [41] = assay: Toxicity in Lewis rat assessed as myeloid or lymphoid hyperplasia in bone marrow at 20 mg/kg, iV after 7 days; assay type: organism-based; set-up: dose 20 mg/kg, route intravenous; settings: in vivo, 168 h
Mus musculus [42] = assay: Subacute toxicity in CD1 mouse assessed as absolute neutrophil counts at 20 mg/kg, ip after 30 days; assay type: organism-based; set-up: dose 20 mg/kg, route intraperitoneal; settings: in vivo, 720 h
Rattus norvegicus [43] = assay: Toxicity in Lewis rat assessed as absolute neutrophil counts at 80 mg/kg, iv after 7 days; assay type: organism-based; set-up: dose 80 mg/kg, route intravenous; settings: in vivo, 168 h
Rattus norvegicus [44] = assay: Toxicity in Lewis rat assessed as WBC counts at 40 mg/kg, iv after 7 days; assay type: organism-based; set-up: dose 40 mg/kg, route intravenous; settings: in vivo, 168 h
Mus musculus [45] = assay: Effect on non-proliferating tissue in ip dosed CD1 mouse assessed as toxic lesions in brain; assay type: ADME, organism-based; settings: in vivo

What does the source list for `C/C(O)=C(\C#N)C(=O)Nc1cc(Br)ccc1Br`?
Activity (Rattus norvegicus [1]): 1.6 10^9/L; Activity (Danio rerio [2]): Active; Activity (Mus musculus [3]): Non-toxic; Activity (Mus musculus [4]): Non-toxic; IC50 [5]: > 500 µM; IC50 [6]: 120 µM; IC50 [7]: > 500 µM; Activity (Mus musculus [8]): 6.4 10^9/L; Activity (Mus musculus [9]): 6.1 10^9/L; IC50 [10]: 262 µM; Activity (Mus musculus [11]): Non-toxic; Activity (Mus musculus [12]): 7 10^9/L; Activity (Rattus norvegicus [13]): Non-toxic; Activity (Mus musculus [14]): 5.1 10^9/L; Activity (Mus musculus [15]): Non-toxic; IC50 [16]: > 500 µM; Activity (Mus musculus [17]): 6 10^9/L; Activity (U-373MG ATCC): Active; Activity (Mus musculus [18]): 1.4 10^9/L; Activity (BT-20): Active; IC50 [19]: > 500 µM; Activity (Rattus norvegicus [20]): 9.7 10^9/L; IC50 [21]: 240 µM; Activity (Mus musculus [22]): Non-toxic; IC50 [23]: 61 µM; Activity (Rattus norvegicus [24]): 9.8 10^9/L; IC50 [25]: > 500 µM; Activity (Rattus norvegicus [26]): Non-toxic; Activity (Mus musculus [27]): Non-toxic; Activity (Mus musculus [28]): Non-toxic; Activity (Rattus norvegicus [29]): Non-toxic; IC50 [30]: 215 µM; IC50 [31]: > 500 µM; IC50 [32]: > 500 µM; IC50 [33]: 267 µM; LD10 (Rattus norvegicus [34]): > 80 mg/kg; IC50 [35]: 32.5 µM; Activity (Mus musculus [36]): 7.6 10^9/L; Activity (Mus musculus [37]): 1.6 10^9/L; Activity (Rattus norvegicus [38]): Non-toxic; Activity (Danio rerio [39]): Active; IC50 [40]: > 500 µM; Activity (Rattus norvegicus [41]): Non-toxic; Activity (Mus musculus [42]): 2.2 10^9/L; Activity (Rattus norvegicus [43]): 1.8 10^9/L; Activity (Rattus norvegicus [44]): 12.9 10^9/L; Activity (Mus musculus [45]): Non-toxic
